Measurements: US20220072095A1, “METHODS AND COMPOSITIONS FOR TREATING SKIN DISEASES” (VANDERBILT UNIVERSITY, priority 2018, published 2022)
Converted amounts (≈) assume the structure as drawn. Bridge positions count the residues as written; N and C are the ends. Peptide text beside a SMILES is read from it.

Assays:
[1] = molecular target: Imp beta (Homo sapiens, UniProt Q14974); settings: cell culture and preclinical studies
[2] = Solubility of NTM peptides; format: physicochemical; settings: cSN50: depending on the method of synthesis and purification; read-out: soluble at levels of
Description: cSN50.1 is a cyclized peptide having the sequence of cSN50 with the exception that the tyrosine at position 18 of cSN50, adjacent to the first cysteine, has been removed. Methods of making and using cSN50 are described, for example, in U.S. Pat. Nos. 7,553,929 and 6,495,518. The amino acid sequence of cSN50.1 is […] (SEQ ID NO: 2). The tyrosine at position 18 was removed from the sequence of cSN50 to increase solubility. cSN50 is soluble at levels of ranging from 2.0 mg/mL to 40 mg/mL depending on the method of synthesis and purification whereas cSN50.1 is soluble at levels of at least 100 mg/ml. Any mimetics, derivatives, or homologs of cSN50.1 may be used in the compositions, methods, and kits disclosed herein. cSN50.1 is also encompassed by SEQ ID NO: 3, SEQ ID NO: 4 and SEQ ID NO: 5. Additional examples of NTMs include fragment-designed and synthesized peptides in which cargo is incorporated as two, rather than one, modules or cargos derived from intracellular proteins other than NFκB 1. Such additional examples include the sequences of SEQ ID NO: 6, SEQ ID NO: 7, SEQ ID NO: 8, and SEQ ID NO: 9.

Chain of Imp beta (Q14974 whole entry, looked up): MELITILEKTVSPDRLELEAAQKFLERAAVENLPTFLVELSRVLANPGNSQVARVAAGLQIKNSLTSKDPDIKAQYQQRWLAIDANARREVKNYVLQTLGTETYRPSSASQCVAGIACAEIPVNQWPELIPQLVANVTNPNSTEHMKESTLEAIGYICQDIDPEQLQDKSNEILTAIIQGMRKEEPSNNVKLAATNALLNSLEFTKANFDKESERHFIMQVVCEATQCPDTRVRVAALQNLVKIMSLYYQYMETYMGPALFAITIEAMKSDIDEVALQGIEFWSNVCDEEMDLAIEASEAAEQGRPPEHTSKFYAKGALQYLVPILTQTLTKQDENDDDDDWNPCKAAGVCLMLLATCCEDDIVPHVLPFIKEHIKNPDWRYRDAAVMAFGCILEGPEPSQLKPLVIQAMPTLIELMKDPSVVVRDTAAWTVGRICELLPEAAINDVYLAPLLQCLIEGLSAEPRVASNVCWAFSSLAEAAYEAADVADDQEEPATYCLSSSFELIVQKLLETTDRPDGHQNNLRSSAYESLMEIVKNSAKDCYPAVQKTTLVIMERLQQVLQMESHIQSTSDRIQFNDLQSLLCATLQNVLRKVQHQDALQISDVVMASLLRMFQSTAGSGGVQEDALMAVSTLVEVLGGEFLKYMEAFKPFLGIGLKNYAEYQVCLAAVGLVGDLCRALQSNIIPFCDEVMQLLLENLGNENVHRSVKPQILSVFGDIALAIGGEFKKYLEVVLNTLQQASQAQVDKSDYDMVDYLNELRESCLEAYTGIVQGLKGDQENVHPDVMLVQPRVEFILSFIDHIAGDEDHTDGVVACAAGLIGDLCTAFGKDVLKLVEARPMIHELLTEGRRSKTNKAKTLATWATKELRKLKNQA

AAVALLPAVLLALLAPCVQRDEQKLMPC [cSN50.1β]
importin selectivity (Comments) [1]: Imp beta-selective

CSCC[C@@H]1NC(=O)[C@H](CC(C)C)NC(=O)[C@H](CCCCN)NC(=O)[C@H](CCC(N)=O)NC(=O)[C@H](CCCNC(=N)N)NC(=O)[C@H](CCCCN)NC(=O)[C@H](CCCNC(=N)N)NC(=O)[C@H](CCC(N)=O)NC(=O)[C@H](C(C)C)NC(=O)[C@H](Cc2ccc(O)cc2)NC(=O)[C@@H](NC(=O)[C@@H]2CCCN2C(=O)[C@H](C)NC(=O)[C@H](CC(C)C)NC(=O)[C@H](CC(C)C)NC(=O)[C@H](C)NC(=O)[C@H](CC(C)C)NC(=O)[C@H](CC(C)C)NC(=O)[C@@H](NC(=O)[C@H](C)NC(=O)[C@@H]2CCCN2C(=O)[C@H](CC(C)C)NC(=O)[C@H](CC(C)C)NC(=O)[C@H](C)NC(=O)[C@@H](NC(=O)[C@H](C)NC(=O)[C@H](C)N)C(C)C)C(C)C)CSSC[C@@H](C(=O)O)NC(=O)[C@@H]2CCCN2C1=O [cSN50] (H-AAVALLPAVLLALLAPCYVQRKRQKLMPC-OH; disulfide 17-29; N-terminus and C-terminus assumed)
solubility [2]: 2 to 40 mg/mL (≈ 0.635 to 12.7 mM)

CSCC[C@@H]1NC(=O)[C@H](CC(C)C)NC(=O)[C@H](CCCCN)NC(=O)[C@H](CCC(N)=O)NC(=O)[C@H](CCCNC(=N)N)NC(=O)[C@H](CCCCN)NC(=O)[C@H](CCCNC(=N)N)NC(=O)[C@H](CCC(N)=O)NC(=O)[C@H](C(C)C)NC(=O)[C@@H](NC(=O)[C@@H]2CCCN2C(=O)[C@H](C)NC(=O)[C@H](CC(C)C)NC(=O)[C@H](CC(C)C)NC(=O)[C@H](C)NC(=O)[C@H](CC(C)C)NC(=O)[C@H](CC(C)C)NC(=O)[C@@H](NC(=O)[C@H](C)NC(=O)[C@@H]2CCCN2C(=O)[C@H](CC(C)C)NC(=O)[C@H](CC(C)C)NC(=O)[C@H](C)NC(=O)[C@@H](NC(=O)[C@H](C)NC(=O)[C@H](C)N)C(C)C)C(C)C)CSSC[C@@H](C(=O)O)NC(=O)[C@@H]2CCCN2C1=O [cSN50.1] (H-AAVALLPAVLLALLAPCVQRKRQKLMPC-OH; disulfide 17-28; N-terminus and C-terminus assumed)
solubility [2]: ≥ 100 mg/mL
